Laboratory results as given in ChEMBL document CHEMBL1138951 (J Med Chem, 2006).

What was measured:
Assay type in all cases: functional, organism-based
Plasmodium falciparum [1] = assay: Antimalarial activity against Plasmodium falciparum Dd2
Plasmodium falciparum [2] = assay: Antimalarial activity against Plasmodium falciparum HB3
Plasmodium falciparum [3] = assay: Antimalarial activity against Plasmodium falciparum W2

CCN(CC)CCCC(C)Nc1ccnc2cc(Cl)ccc12 (stereo not drawn) [CHLOROQUINE]
IC90 (Plasmodium falciparum [1]): 167 nM | IC90 (Plasmodium falciparum [2]): 45.7 nM | IC90 (Plasmodium falciparum [3]): 802 nM
